{
  "source": "patent US12458622B2",
  "about": "“Methods of treatment of coronavirus-induced inflammation conditions” (priority 2020, dated 2025)",
  "key": {"[1]": {"conditions": "cited from earlier work"}, "Stump-tailed Monkeys [2]": {"test_system": "Stump-tailed Monkeys", "conditions": "cited from earlier work"}, "Rhesus Monkeys [3]": {"test_system": "Rhesus Monkeys", "conditions": "daily IV dosing at 0, 2, 10 and 50 mg/kg, 6 months; cited from earlier work"}, "Dog": {"test_system": "Dog", "conditions": "cited from earlier work"}, "Rhesus Monkeys [4]": {"test_system": "Rhesus Monkeys", "conditions": "cited from earlier work"}, "Wistar Rats": {"test_system": "Wistar Rats", "conditions": "4% cromolyn 0, 4, 8, 16 mg/day, 3 month; cited from earlier work"}, "TgSOD1^G93A mice": {"test_system": "TgSOD1^G93A mice", "test": "Meso Scale Discovery multi-spot cytokine assay in spinal cord and plasma of TgSOD1 mice", "conditions": "6.3 mg/kg i.p."}, "Rabbit": {"test_system": "Rabbit", "conditions": "Oral; cited from earlier work"}, "[5]": {"test_system": "HMC3 human microglia cells", "test": "MSD U-PLEX chemokine secretion induced by TNF-α", "assay_type": "cell-based", "conditions": "0.3 μg/mL TNF-α, 24 hours; for inhibition at 3 µM: Homo sapiens, HMC3", "method": "(§1) Human microglial cell line HMC3 (CRL-3304) was purchased from ATCC (American Type Culture Collection). HMC3 cell line was cultured in DMEM medium with 10% FBS, 1% L-glutamine, and 1% penicillin/streptomycin. Cells were maintained in 37° C. incubator at 5% CO2.\nHMC3 cells were resuspended, counted using the LUNA-II Automated Cell Counter, seeded in the 6-well plate (400 K cells/2 mL medium/well), and incubated overnight to allow cells to attach. The media and detached cells were removed next day. The cell layer was washed three times in PBS and once in serum- and phenolred-free DMEM (SPFM). […] The conditioned medium was collected and centrifuged at 1,000×RCF (g) for 5 min to pellet detached cells and large debris, which was subsequently passed through a 0.22 μm filter with PVDF membrane to remove smaller debris. Samples of the supernatant medium were put in a CoolRack (#07210041, Fisher Scientific) on dry ice for Snap-freezing and kept at −80° C. until use.\nMeso-scale U-PLEX plates that detect a cytokine panel including IL-1β, IL-2, IL-4, IL-6, IL-8, IL-10, IFN-γ, TNF-α, and a chemokine panel including IP-10/CXCL10, MCP-1/CCL2, MIP-1α/CCL3, MIP-1P/CCL4, Eotaxin/CCL11, were used as per manufacture's protocol. 25 μL of the conditioned medium was used in each well of the MSD plates to detect the analytes. The plates were then analyzed on an MSD QuickPlex SQ120 instrument.\n(§2) All the data were presented as mean±standard error from at least three times, each done in triplicate. The statistical significance between two groups was determined by Student's t test, whereas the comparisons of multiple groups were carried out by one-way ANOVA, followed by Bonferroni's post-test using GraphPad Prism 7 (GraphPad Software, Inc.). A probability value of * p<0.05 was considered to be significant."}, "[6]": {"test_system": "HMC3 human microglia cells", "test": "Cell viability assay by AO/PI stain", "assay_type": "cell-based", "conditions": "0.3 μM, TNF-α 0.3 μg/mL", "method": "as §1\nHMC3 cells were resuspended, counted using the LUNA-II Automated Cell Counter, seeded in the 6-well plate (300 K cells/2 mL medium/well), and incubated overnight to allow cells to attach. Cells were treated with TNF-α or IFN-γ at five different concentrations (0, 10, 30, 100, 300 ng/mL) for 24 hr to induce cell activation. The supernatant medium was completely aspirated and 1 mL of fresh DMEM was added to wash the cell layer to remove detached cells and debris. The attached cells were resuspended and washed with PBS. Cells were washed with FACS buffer (2% FBS in PBS) prior to incubation with Zombie Violet Fixable Viability Dye (#423114, Biolegend, 1:500 dilution) and Human Fe Receptor Blocking Solution (#422302, Biolegend, 1:20) diluted in FACS buffer at RT for 10 min in the dark. Cells were then washed with FACS buffer and incubated at RT for 20 min with the following cell-surface antibodies: FITC anti-MHC II (#361706, Biolegend), PerCP/Cy5.5 anti-CD11b (#301328, Biolegend), BV605 anti-CD40 (#334336, Biolegend), PE anti-CD86 (#374206, Biolegend), PE/Cy7 anti-CD163 (#326514, Biolegend), APC anti-CD206 (#321110, Biolegend), and PerCP/Cy5.5 anti-CD14 (#367110, Biolegend). All of the cell-surface antibodies were diluted 1:20 in FACS buffer. Cells were permeabilized using the Transcription Factor Fixation/Permeabilization Buffer Set (#424401, Biolegend). Then cells were incubated with the following intracellular antibodies: APC/Cy7 anti-CD68 (#333822, Biolegend), purified anti-IBA1 (#PA5-27436, Invitrogen), Goat anti-Rabbit-Alexa Fluor 647 (#A21245, Invitrogen), purified anti-GFAP (#644702, Biolegend), and Goat anti-Mouse-Alexa Fluor 488 (#11029, Invitrogen). All of the intracellular antibodies were diluted 1:100 in the Permeabilization buffer (lx). Cells were washed with Permeabilization buffer and fixed in Fixation Buffer (#420801, Biolegend). Flow cytometry was performed using the Attune NxT Acoustic Focusing Cytometer (Thermo Fisher Scientific). Analysis of flow cytometry data was performed via FCS Express 7 (DeNovo Software).\nCell viability was assessed with a LUNA-FL Automated fluorescence cell counter. Viable nucleated cells show green fluorescence and dying nucleated cells show red fluorescence. 18 µL of sample was mixed with 2 μL Acridine Orange/Propidium Iodide (AO/PI) Stain.\nas §2"}, "Stump-tailed Monkeys [7]": {"test_system": "Stump-tailed Monkeys", "conditions": "20 mg cromolyn and lactose capsules, 4, 16 and 72 capsules/day, 17 weeks; cited from earlier work"}, "[8]": {"conditions": "TgSOD1-Cromolyn vs TgSOD1-Vehicle, p=0.0273"}},
  "note": "Read-outs that look alike come from different tables or passages of the source.",
  "data": [
    {"smiles": "O=C(O)c1cc(=O)c2c(OCC(O)COc3cccc4oc(C(=O)O)cc(=O)c34)cccc2o1", "note": "[cromolyn]", "values": [
      {"measurement": "Adverse effects in repeat dose studies", "setting": "[1]; all routes of administration", "value": "No adverse effects"},
      {"measurement": "Renal toxicity", "setting": "[1]; dosing of high concentration, precipitation in the renal tubules", "value": "renal damage was observed"},
      {"measurement": "Survival until the scheduled necropsy", "setting": "Stump-tailed Monkeys [2]; single IV dose 333 mg/kg, 4 to 10-day observation", "value": "given 333 mg/kg survived"},
      {"measurement": "Clinical signs", "setting": "Stump-tailed Monkeys [2]; single IV dose 5082 mg/kg", "value": "stertorous breathing,"},
      {"measurement": "Time to death of one monkey", "setting": "Stump-tailed Monkeys [2]; single IV dose 5082 mg/kg", "value": "mg/kg died within 4 hours"},
      {"measurement": "Body weight, observations, clinical laboratory results, organ weights, gross and microscopic pathology", "setting": "Rhesus Monkeys [3]", "value": "within normal limits and"},
      {"measurement": "LD50 Value", "setting": "Dog; IV", "value": ">1600", "unit": "mg/kg"},
      {"measurement": "LD50 Value", "setting": "Dog; Oral", "value": ">4", "unit": "gm/kg"},
      {"measurement": "Mortality", "setting": "Rhesus Monkeys [4]; single IV dose of 5, 50, 500, 1000 mg/kg, 7-day observation", "value": "There were no mortalities."},
      {"measurement": "Clinical signs and weight", "setting": "Rhesus Monkeys [4]; single IV dose, at 500 and 1000 mg/kg", "value": "Slight ataxia and weight"},
      {"measurement": "General toxicity", "setting": "Wistar Rats", "value": "No general toxic effects."},
      {"measurement": "IL-10 level in plasma", "setting": "TgSOD1^G93A mice; TgSOD1-Cromolyn vs TgSOD1-Vehicle, p=0.0095", "value": "significantly decreased"},
      {"measurement": "IL-2 level in plasma", "setting": "TgSOD1^G93A mice; TgSOD1-Cromolyn vs TgSOD1-Vehicle, p=0.0211", "value": "significantly decreased"},
      {"measurement": "IL-6 level in plasma", "setting": "TgSOD1^G93A mice; [8]", "value": "significantly decreased"},
      {"measurement": "TNFα level in spinal cord", "setting": "TgSOD1^G93A mice; [8]", "value": "significant decrease"},
      {"measurement": "TNFα level in plasma", "setting": "TgSOD1^G93A mice; TgSOD1-Cromolyn vs TgSOD1-Vehicle, p=0.110", "value": "trend towards a decrease"},
      {"measurement": "IL-13 level in plasma", "setting": "TgSOD1^G93A mice; between groups, FIG. 2A", "value": "no statistically significant difference"},
      {"measurement": "IL-5 level in plasma", "setting": "TgSOD1^G93A mice; between groups, FIG. 2C", "value": "no statistically significant difference"},
      {"measurement": "LD50 Value", "setting": "Rabbit", "value": ">8", "unit": "gm/kg"},
      {"measurement": "extracellular IP-10 (CXCL10)", "setting": "[5]; 0.3 μM", "value": "statistically significant reduction"},
      {"measurement": "extracellular MCP-1 (CCL2)", "setting": "[5]; 0.3 μM", "value": "statistically significant reduction"},
      {"measurement": "extracellular MIP-1α (CCL3)", "setting": "[5]; 0.3 μM", "value": "statistically significant reduction"},
      {"measurement": "extracellular MIP-1β (CCL4)", "setting": "[5]; 0.3 μM", "value": "statistically significant reduction"},
      {"measurement": "inhibition at 3 µM", "setting": "[5]; read-out: inhibition of IP-10 (CXCL10)", "value": "> 40", "unit": "%"},
      {"measurement": "inhibition at 3 µM", "setting": "[5]; read-out: inhibition of MCP-1 (CCL2)", "value": "> 40", "unit": "%"},
      {"measurement": "inhibition at 3 µM", "setting": "[5]; read-out: inhibition of MIP-1α (CCL3)", "value": 35.6, "unit": "%"},
      {"measurement": "inhibition at 3 µM", "setting": "[5]; read-out: inhibition of MIP-1β (CCL4)", "value": "> 40", "unit": "%"},
      {"measurement": "TNF-α induced cell death", "setting": "[6]", "value": "significantly reduced cell death"},
      {"measurement": "Body weight", "setting": "Stump-tailed Monkeys [7]", "value": "Some weight loss."}
    ]}
  ]
}
